Laboratory results published in patent publication US12551482B2, “Aurora kinase inhibitors” (The Regents of the University of California, priority 2013, dated 2026).
Like-named read-outs stand apart in the source and are kept apart here.

Legend:
Assay in all cases: Cancer cell line profiling, Genomics of Drug Sensitivity Project
[1] = tested on: LOXIMVI
[2] = tested on: SK-MEL-1; conditions: Homo sapiens, SK-MEL-1, read-out: CD532 EC50 (uM)
[3] = tested on: MEWO; conditions: Homo sapiens, read-out: CD532 EC50 (uM)
[4] = tested on: NB10; conditions: read-out: CD532 EC50 (uM)
[5] = tested on: LB831-BLC; conditions: read-out: CD532 EC50 (uM)
[6] = tested on: HSC-39; conditions: read-out: CD532 EC50 (uM)
[7] = tested on: PE/CA-PJ15; conditions: read-out: CD532 EC50 (uM)
[8] = tested on: GI-ME-N
[9] = tested on: LB996-RCC; conditions: read-out: CD532 EC50 (uM)
[10] = tested on: 8505C; conditions: Homo sapiens, read-out: CD532 EC50 (uM)
[11] = tested on: HGC-27; conditions: Homo sapiens, HGC-27, read-out: CD532 EC50 (uM)
[12] = tested on: MZ7-mel
[13] = tested on: A2058

O=C(Nc1ccc(Nc2nccc(Nc3cc(C4CCCC4)[nH]n3)n2)cc1)Nc1cccc(C(F)(F)F)c1 [CD532, 1-(4-((4-((5-cyclopentyl-1H-pyrazol-3-yl)amino)pyrimidin-2-yl)amino)phenyl)-3-(3-(trifluoromethyl)phenyl)urea]
EC50 ([1]; Homo sapiens, LOX IMVI, read-out: CD532 EC50 (uM), LOXIMVI cell line, Skin): 0.732 µM
EC50 ([1]; read-out: CD532 EC50, LOXIMVI cell line, Skin): 0.384 µM
EC50 [2]: 0.649 µM
EC50 [3]: 1.46 µM
EC50 [4]: 0.275 µM
EC50 [5]: 1.29 µM
EC50 [6]: 0.103 µM
EC50 [7]: 1.9 µM
EC50 ([8]; read-out: CD532 EC50 (uM), GI-ME-N cell line, Nervous System): 0.428 µM
EC50 ([8]; read-out: CD532 EC50, GI-ME-N cell line, Nervous System): 0.812 µM
EC50 [9]: 2.08 µM
EC50 [10]: 0.662 µM
EC50 [11]: 0.83 µM
EC50 ([12]; read-out: CD532 EC50 (uM), MZ7-mel cell line, Skin): 0.73 µM
EC50 ([12]; read-out: CD532 EC50, MZ7-mel cell line, Skin): 0.556 µM
EC50 ([13]; Homo sapiens, A2058, read-out: CD532 EC50 (uM), A2058 cell line, Skin): 0.975 µM
EC50 ([13]; read-out: CD532 EC50, A2058 cell line, Skin): 1.09 µM
